Biological target: T1, human GPR139 (Homo sapiens, UniProt Q6DWJ6)
T1 construct: expressed in transfected cells; host or cells: CHO-TREx (Life Technologies) cells, expression induced with doxycycline
T1 sequence (Q6DWJ6 1-353): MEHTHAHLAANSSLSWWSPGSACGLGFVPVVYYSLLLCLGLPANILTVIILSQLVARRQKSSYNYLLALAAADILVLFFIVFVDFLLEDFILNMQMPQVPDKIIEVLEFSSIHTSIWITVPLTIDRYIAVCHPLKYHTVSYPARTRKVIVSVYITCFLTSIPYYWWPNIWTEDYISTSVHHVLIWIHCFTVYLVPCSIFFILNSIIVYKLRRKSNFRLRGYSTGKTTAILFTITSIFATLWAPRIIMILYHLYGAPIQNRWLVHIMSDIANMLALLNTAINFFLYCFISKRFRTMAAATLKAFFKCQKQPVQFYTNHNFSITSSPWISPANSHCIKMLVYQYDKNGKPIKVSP
Test: Inhibition rate of the amount of IP1 in GPR139-expressed CHO cells (inverse agonist assay, Test Example 2)
Assay type: cell-based
Conditions: CHO, relative value, inhibition rate of Example Compound 2 in Test Example 1 defined as 100%
Procedure: The measurement of IP1 was made using an IP-ONE HTFR assay kit (cis-bio) and CHO-TREx (Life Technologies) cells stably transfected with GPR139. The CHO-TREx cells expressed human GPR139 with a tetracycline-inducing element. The cells were cultured in a medium containing F12K and 10% tetracycline-free FBS, and the expression of human GPR139 was induced over the course of 17 hours under conditions of 37° C. and 5% CO2 in the presence of 2 μg/mL of doxycycline (Clontech, 631311) in the growth medium on the day before assay. On the day of the test, after the cells were washed with 10 mL of PBS, the cells were detached with TrypLE Express (Life Technologies) and centrifuged at 1,000 rpm to form pellets, and a cell suspension was then prepared using a stimulation buffer (cis-bio, included in the IP-ONE HTRF assay kit).
The compound was diluted with the stimulation buffer, and 4 μL was added to a 384-well white assay plate (Greiner). The cell suspension was added so that there were 2000 cells per well, and the assay plate was left to stand for 40 minutes at 37° C. Equal amounts of IP1-d2 and Ab-Crp solutions (both available from cis-bio, included in the IP-ONE HTRF assay kit) prepared with a lysis buffer (cis-bio, included in the IP-ONE HTRF assay kit) were mixed, and 4 μL was added to the assay plate and left to stand for one hour at room temperature. After the fluorescence strengths of two wavelengths were measured by the HTRF settings of Envision (PerkinElmer), the value of Ratio={(Signal 665 nm)/(Signal 615 nm)}×10000 was calculated.
Measurement of the Inhibition Rate of the Amount of IP1 in GPR139-Expressed CHO Cells (Inverse Agonist Assay)
The activities of the compounds of Examples 1 and 3 to 167 were expressed as relative values in Table 2 by measuring the inhibition rate of the amount of IP1 with the same method as in Test Example 1 and defining the inhibition rate of the amount of IP1 of Example Compound 2 in Test Example 1 as […].

CCn1cc(Cn2c(C)cn(-c3cc(N4CCO[C@H](C)C4)cc(C(F)(F)F)c3F)c2=O)cn1 [Example 25, 3-[(1-ethyl-1H-pyrazol-4-yl)methyl]-1-{2-fluoro-5-[(2R)-2-methylmorpholin-4-yl]-3-(trifluoromethyl)phenyl}-4-methyl-1,3-dihydro-2H-imidazol-2-one]
inhibition at 30 µM: 100%

CCn1cc(Cn2ccn(-c3nc(N4CCO[C@H](C)C4)cc(C(F)(F)F)c3F)c2=O)cn1 [Example 26, 1-[(1-ethyl-1H-pyrazol-4-yl)methyl]-3-{3-fluoro-6-[(2R)-2-methylmorpholin-4-yl]-4-(trifluoromethyl)pyridin-2-yl}-1,3-dihydro-2H-imidazol-2-one]
inhibition at 30 µM: 100%

CCn1cc(Cn2cnn(-c3cc(N4CCO[C@H](C)C4)cc(C(F)(F)F)c3F)c2=O)cn1 [Example 27, 4-[(1-ethyl-1H-pyrazol-4-yl)methyl]-2-{2-fluoro-5-[(2R)-2-methylmorpholin-4-yl]-3-(trifluoromethyl)phenyl}-2,4-dihydro-3H-1,2,4-triazol-3-one]
inhibition at 30 µM: 99%

CCn1cc(Cn2cc(C)n(-c3cc(N4CCO[C@@H](C)C4)cc(C(F)(F)F)c3)c2=O)cn1 [Example 28, 1-[(1-ethyl-1H-pyrazol-4-yl)methyl]-4-methyl-3-{3-[(2S)-2-methylmorpholin-4-yl]-5-(trifluoromethyl)phenyl}-1,3-dihydro-2H-imidazol-2-one]
inhibition at 30 µM: 99%

CCn1cc(Cn2cc(C)n(-c3cc(N4CCOC(C)(C)C4)cc(C(F)(F)F)c3)c2=O)cn1 [Example 29, 3-[3-(2,2-dimethylmorpholin-4-yl)-5-(trifluoromethyl)phenyl]-1-[(1-ethyl-1H-pyrazol-4-yl)methyl]-4-methyl-1,3-dihydro-2H-imidazol-2-one]
inhibition at 30 µM: 99%

CCn1cc(Cn2c(C)cn(-c3nc(N4CCO[C@H](C)C4)cc(C(F)(F)F)c3F)c2=O)cn1 [Example 30]
inhibition at 30 µM: 99%

CCn1cc(Cn2ccn(-c3cc(N4C[C@@H](C)O[C@@H](C)C4)cc(C(F)(F)F)c3F)c2=O)cn1 [Example 31, 1-{5-[(2R,6S)-2,6-dimethylmorpholin-4-yl]-2-fluoro-3-(trifluoromethyl)phenyl}-3-[(1-ethyl-1H-pyrazol-4-yl)methyl]-1,3-dihydro-2H-imidazol-2-one]
inhibition at 30 µM: 100%

CCn1cc(Cn2ccn(-c3cc(N4CCO[C@H](C)C4)cc(Cl)c3F)c2=O)cn1 [Example 32, 1-{3-chloro-2-fluoro-5-[(2R)-2-methylmorpholin-4-yl]phenyl}-3-[(1-ethyl-1H-pyrazol-4-yl)methyl]-1,3-dihydro-2H-imidazol-2-one]
inhibition at 30 µM: 98%

CCn1cc(Cn2cc(C)n(-c3cc(C4CCC(F)(F)CC4)cc(C(F)(F)F)c3)c2=O)cn1 [Example 33, 3-[3-(4,4-difluorocyclohexyl)-5-(trifluoromethyl)phenyl]-1-[(1-ethyl-1H-pyrazol-4-yl)methyl]-4-methyl-1,3-dihydro-2H-imidazol-2-one]
inhibition at 30 µM: 100%

CCn1cc(Cn2ccn(-c3cc(N4C[C@@H](C)O[C@H](C)C4)cc(C(F)(F)F)c3F)c2=O)cn1 [Example 34, 1-{5-[(2R,6R)-2,6-dimethylmorpholin-4-yl]-2-fluoro-3-(trifluoromethyl)phenyl}-3-[(1-ethyl-1H-pyrazol-4-yl)methyl]-1,3-dihydro-2H-imidazol-2-one]
inhibition at 30 µM: 100%

CC(C)n1cc(Cn2ccn(-c3cc(N4CCO[C@H](C)C4)cc(C(F)(F)F)c3F)c2=O)cn1 [Example 35, 1-{2-fluoro-5-[(2R)-2-methylmorpholin-4-yl]-3-(trifluoromethyl)phenyl}-3-{[1-(propan-2-yl)-1H-pyrazol-4-yl]methyl}-1,3-dihydro-2H-imidazol-2-one]
inhibition at 30 µM: 99%

CCn1cc(Cn2ccn(-c3cc(N4CCC(F)(F)CC4)cc(C(F)(F)F)c3F)c2=O)cn1 [Example 36, 1-[5-(4,4-difluoropiperidin-1-yl)-2-fluoro-3-(trifluoromethyl)phenyl]-3-[(1-ethyl-1H-pyrazol-4-yl)methyl]-1,3-dihydro-2H-imidazol-2-one]
inhibition at 30 µM: 101%

CCn1cc(Cn2ccn(-c3cc(N4CCCC(F)(F)C4)cc(C(F)(F)F)c3F)c2=O)cn1 [Example 37, 1-[5-(3,3-difluoropiperidin-1-yl)-2-fluoro-3-(trifluoromethyl)phenyl]-3-[(1-ethyl-1H-pyrazol-4-yl)methyl]-1,3-dihydro-2H-imidazol-2-one]
inhibition at 30 µM: 99%

CCn1cc(Cn2cc(C)n(-c3cc(N(C)C4CCOCC4)cc(C(F)(F)F)c3)c2=O)cn1 [Example 38, 1-[(1-ethyl-1H-pyrazol-4-yl)methyl]-4-methyl-3-{3-[methyl(oxan-4-yl)amino]-5-(trifluoromethyl)phenyl}-1,3-dihydro-2H-imidazol-2-one]
inhibition at 30 µM: 99%

CCn1cc(Cn2ccn(-c3cc(N4CCC(F)(F)C4)cc(C(F)(F)F)c3F)c2=O)cn1 [Example 39, 1-[5-(3,3-difluoropyrrolidin-1-yl)-2-fluoro-3-(trifluoromethyl)phenyl]-3-[(1-ethyl-1H-pyrazol-4-yl)methyl]-1,3-dihydro-2H-imidazol-2-one]
inhibition at 30 µM: 99%

CCn1cc(Cn2ccn(-c3cc(N4CCOC(F)(F)C4)cc(C(F)(F)F)c3F)c2=O)cn1 [Example 40, 1-[5-(2,2-difluoromorpholin-4-yl)-2-fluoro-3-(trifluoromethyl)phenyl]-3-[(1-ethyl-1H-pyrazol-4-yl)methyl]-1,3-dihydro-2H-imidazol-2-one]
inhibition at 30 µM: 101%

CCn1cc(Cn2cc(C)n(-c3cc(N4CCOC(F)(F)C4)cc(C(F)(F)F)c3)c2=O)cn1 [Example 41, 3-[3-(2,2-difluoromorpholin-4-yl)-5-(trifluoromethyl)phenyl]-1-[(1-ethyl-1H-pyrazol-4-yl)methyl]-4-methyl-1,3-dihydro-2H-imidazol-2-one]
inhibition at 30 µM: 101%

CCn1cc(Cn2ccn(-c3nc(N4CCO[C@H](C)C4)cc(C(F)(F)F)c3C)c2=O)cn1 [Example 42, 1-[(1-ethyl-1H-pyrazol-4-yl)methyl]-3-{3-methyl-6-[(2R)-2-methylmorpholin-4-yl]-4-(trifluoromethyl)pyridin-2-yl}-1,3-dihydro-2H-imidazol-2-one]
inhibition at 30 µM: 99%

CCn1cc(Cn2ccn(-c3cc(N4CCOC5(CC5)C4)cc(C(F)(F)F)c3F)c2=O)cn1 [Example 43, 1-[(1-ethyl-1H-pyrazol-4-yl)methyl]-3-[2-fluoro-5-(4-oxa-7-azaspiro[2.5]octan-7-yl)-3-(trifluoromethyl)phenyl]-1,3-dihydro-2H-imidazol-2-one]
inhibition at 30 µM: 100%

CCn1cc(Cn2ccn(-c3cc(N4CCO[C@H](C)C4)cc(C4CC4)c3F)c2=O)cn1 [Example 44, 1-{3-cyclopropyl-2-fluoro-5-[(2R)-2-methylmorpholin-4-yl]phenyl}-3-[(1-ethyl-1H-pyrazol-4-yl)methyl]-1,3-dihydro-2H-imidazol-2-one]
inhibition at 30 µM: 100%

CCn1cc(Cn2c(C)cn(-c3nc(N4CCO[C@H](C)C4)cc(C(F)(F)F)c3C)c2=O)cn1 [Example 45, 3-[(1-ethyl-1H-pyrazol-4-yl)methyl]-4-methyl-1-{3-methyl-6-[(2R)-2-methylmorpholin-4-yl]-4-(trifluoromethyl)pyridin-2-yl}-1,3-dihydro-2H-imidazol-2-one]
inhibition at 30 µM: 101%

CCn1cc(Cn2c(C)c(C)n(-c3cc(OCC(F)F)cc(N4CCO[C@H](C)C4)c3)c2=O)cn1 [Example 46, 1-{3-(2,2-difluoroethoxy)-5-[(2R)-2-methylmorpholin-4-yl]phenyl}-3-[(1-ethyl-1H-pyrazol-4-yl)methyl]-4,5-dimethyl-1,3-dihydro-2H-imidazol-2-one]
inhibition at 30 µM: 100%

CCn1cc(Cn2c(C)c(C)n(-c3cc(OCC(F)(F)F)cc(N4CCO[C@H](C)C4)c3)c2=O)cn1 [Example 47, 1-[(1-ethyl-1H-pyrazol-4-yl)methyl]-4,5-dimethyl-3-{3-[(2R)-2-methylmorpholin-4-yl]-5-(2,2,2-trifluoroethoxy)phenyl}-1,3-dihydro-2H-imidazol-2-one]
inhibition at 30 µM: 101%

CCn1cc(Cn2cc(C)n(-c3cc(OCOC)cc(C(F)(F)F)c3)c2=O)cn1 [Example 48, 1-[(1-ethyl-1H-pyrazol-4-yl)methyl]-3-[3-(methoxymethoxy)-5-(trifluoromethyl)phenyl]-4-methyl-1,3-dihydro-2H-imidazol-2-one]
inhibition at 30 µM: 101%

Source: US12630534B2 (TAKEDA PHARMACEUTICAL COMPANY LIMITED, priority 2020, dated 2026)
